In publication PMC6478719 (Communications Biology, 2019):
Read-outs that look alike come from different tables or passages of the source.

Target: T1, Olfr73 (Mus musculus, UniProt Q920P2)
T1 construct: expressed in transfected cells; host or cells: Hana3A cells (HEK293T-derived), co-transfected with pRTP1S and pCRE-SEAP
T1 sequence (Q920P2 1-313): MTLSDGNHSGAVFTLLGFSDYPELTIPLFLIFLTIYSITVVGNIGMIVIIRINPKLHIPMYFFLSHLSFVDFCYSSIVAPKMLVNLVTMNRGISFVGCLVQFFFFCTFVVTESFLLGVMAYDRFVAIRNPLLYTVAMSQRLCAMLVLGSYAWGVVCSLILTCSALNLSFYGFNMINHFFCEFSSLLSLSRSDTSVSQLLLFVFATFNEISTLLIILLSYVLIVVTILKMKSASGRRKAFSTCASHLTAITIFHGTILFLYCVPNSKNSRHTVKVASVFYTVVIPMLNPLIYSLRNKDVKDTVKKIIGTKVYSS
Test: SEAP reporter assay (cAMP signalling) of Olfr73 activation in Hana3A cells
Format: cell-based
Description: As described in detail elsewhere[16],[45],[47] HEK293T-derived Hana3A cells (provided by Prof. Matsunami, Duke University, USA) were grown in DMEM/F12 medium (Invitrogen, Netherlands) supplemented with 10% fetal calf serum (FCS) (Invitrogen, Netherlands), maintained under selective conditions with 1 μg/ml of puromycin (Sigma, Switzerland) and kept in the incubator at 37 °C and 5% CO2. Cells were transfected with plasmid DNA using Lipofectamine 2000 (Invitrogen, Netherlands).
The assays were performed as described in detail elsewhere[16],[45],[47] twenty hours before transfection Hana3A cells were seeded into 96 wells (Greiner, Germany) at a concentration of 3.5 × 10^6 cells per ml of medium. 75 ng of pRTP1S, 150 ng of the cAMP response element fused to the secreted alkaline phosphatase (pCRE-SEAP)[89] and either 75 ng of pOlfr73[47] or 75 ng of calf thymus DNA, used as a control, were co-transfected. Compounds to be tested (Sigma, Switzerland) were diluted in DMEM/F12 without FCS and added to the cells 7 h after transfection. Cells were incubated for 16 h at 37 °C in the incubator. For the SEAP reporter assay, the culture medium was mixed with an equal volume of 1 M diethanolamine-bicarbonate, pH 9.8, containing 20 mM para-nitrophenyl-phosphate (pNPP) (Sigma, Switzerland) and 1 mM MgCl2 (Sigma, Switzerland). Absorbance was measured at 410 nm using a multiwell absorbance plate reader (Molecular Devices, USA) at 1- to 4-min intervals for a period of 5 min to determine SEAP expression dependent pNPP hydrolysis rates (A410 /min). EC50 values were determined from dose-response curves fitting experimental data with the Hill equation using IGOR Pro software (WaveMetrics):
fx=f(max)/1+EC50/x^n f(x) is the background-corrected response signal at concentration x of the investigated ligand, f(max) the maximal, background-corrected amplitude of the response signal, EC50 the half maximal effective ligand concentration, and n the Hill coefficient. Experiments were performed in triplicate.

[1] = Fig. 4, newly found agonists A1-A17, read-out: EC50 (in brackets, Fig. 4)
[2] = Supplementary Table 2, cellular assays, triplicate, n.a. = no active response, read-out: EC50
[3] = EC50 (in brackets, Fig. 4), Fig. 4, newly found agonists A1-A17
[4] = EC50 (μM), Supplementary Table 2, cellular assays, triplicate, n.a. = no active response

| SMILES | EC50 [2] [µM] | EC50 [4] [µM] | further results |
| --- | --- | --- | --- |
| CCCCCC1CCC(=O)CC1 [A6, 4-pentylcyclohexanone] | 63.1 ± 1.5 | – | EC50 [1]: 63 µM |
| CC/C=C/c1ccc(OC)c(OC)c1 [A8, (E)-4-(but-1-en-1-yl)-1,2-dimethoxybenzene] | – | 92.5 ± 0.9 | EC50 [3]: 93 µM |
| CCC(=O)c1ccc(O)cc1 [A15, 4-hydroxypropiophenone] | 502 ± 315 | – | – |
| C=CCc1cc(C(C)=O)ccc1O [A9, 1-(3-allyl-4-hydroxyphenyl)-ethanone] | – | 96.9 ± 1.7 | EC50 [3]: 97 µM |
| C/C=C/c1ccc(OCC)c(OC)c1 [A11, isoeugenylethylether] | 193 ± 3 | – | – |
| CC(C)=C[C@H]1C[C@H](C)CCO1 [A17, (2R,4R)-4-methyl-2-(2-methylprop-1-en-1-yl)-tetrahydro-2H-pyran] | 627 ± 62 | – | – |
| CC(C)Cc1ccc(O)cc1 [A1, p-isobutylphenol] | 12.9 ± 0.9 | – | EC50 [1]: 13 µM; agonist activity at Olfr73 (SEAP signal) (Hana3A cells, compounds predicted from virtual screening): most potent ligand |
| CCCc1ccc(O)c(OC)c1 [A5, dihydroeugenol] | – | 61 ± 6.9 | – |
| COc1cc(C(C)(C)C)ccc1O [A4, 4-tert-butyl-2-methoxyphenol] | 55.6 ± 0.7 | – | EC50 [1]: 56 µM |
| Oc1ccc(C2CCCCC2)cc1 [A3, 4-cydohexyl-phenol] | – | 50.8 ± 0.5 | EC50 [3]: 51 µM |
| CC(=O)c1cc(C)c(O)c(C)c1 [A13, 4-hydroxy-3,5-dimethylacetophenone] | 250 ± 3 | – | – |
| CC(=O)c1cc(C)c(O)cc1C [A2, 2’,5’-dimethyl -4’hydroxyacetophenone] | 16 ± 1.5 | – | – |
| COc1cc2c(cc1OC)CCCC2 [A7, 6,7-dimethoxy-1,2,3,4-tetrahydronaphthalene] | 88.4 ± 1.3 | – | EC50 [1]: 88 µM |
| COc1cc2ccccc2cc1OC [A10, 2,3-dimethoxynaphthalene] | 120 ± 1 | – | – |
| CCOC(=O)c1ccc(O)c(OC)c1 [A16, ethylvanillate] | – | 505 ± 109 | – |
